Legend:
[1] = molecular target: EED (1-441)-His protein (Homo sapiens (Human), UniProt O75530); test: EED-H3K27Me3 peptide competition binding assay by AlphaScreen; conditions: EED Alphascreen binding Qualified assay
Method: Then 4 μL of detection beads mix was added to the plate and incubate in the dark at the rt for 1 h. The final concentration of donor and acceptor beads was 10 μg/mL for each. […] The data were then fit to a dose response equation using the program Helios (Novartis) to get the IC50 values. […] Sebaugh, J. […] Each compound was counter screened to determine if it interfered with the AlphaScreen beads. […] The plates were then incubated for 1 h at rt in dark before being read on EnVison.

[2] = molecular target: wild type PRC2 (wtPRC2) complex (Homo sapiens (Human), UniProt O75530); test: EED LC-MS assay; assay type: biochemical; conditions: EED LC-MS Qualified assay; read-out: (b) IC50
Method: EED LC-MS Assay Representative compounds of the present invention were serially and separately diluted 3-fold in DMSO to obtain a total of eight or twelve concentrations. […] A 6 μL solution of 3 μM of the peptide substrate H3K27Me0 (histone H3[21-44]-biotin) in reaction buffer was added to initiate each reaction. […] The data were then fit to a dose response equation using the program Helios to get the IC50 values of the test compound.

[3] = test system: H3K27 methylation in G401 cell; test: ELISA (H3K27 methylation) assay; assay type: cell-based; conditions: Homo sapiens, G-401, ELISA Qualified assay, 48 h, read-out: (c) IC50
Method: ELISA (H3K27 Methylation) Assay
Representative compounds of the present invention were serially and separately diluted 3-fold in DMSO to obtain a total of eight or twelve concentrations. Then the compounds were added to G401 cell cultured in 384-well plate at 1:500 dilution to obtain the highest concentration of 20 μM. The cells were further cultured for 48 h before ELISA procedure.
ELISA protocol: Cell lysates were transferred to the wells of a 384-well plate and the final volume was adjusted to 50 μL per well with PBS. The plate was sealed, centrifuged at 2,000 rpm for 2 min and incubated at 4° C. for about 16 h. The plate was washed with TBST buffer (1×TBS (10×TBS: 24.2 g Tris (Sigma, T6066), 80 g NaCl (Sigma, S3014) to 1 L of water and adjust pH to 7.6 with HCl) with 0.1% Tween-20). Blocking buffer (TBST, 5% BSA; 50 μL per well) was added and the plate was incubated for 1 h at rt. The blocking buffer was removed and primary antibody was added (30 μL per well). […] The primary antibody was incubated in the plate at rt for 1 h. The wells were washed with TBST and incubated with secondary antibody for 1 h at rt. […] After 1 h of incubation at rt, the wells were washed with TBST. […] The signal was read using a PerkinElmer Envision Reader. The H3K27 methylation readouts were normalized using H3 signal and then percentage inhibition was calculated against the samples treated with DMSO. The data were then fit to a dose response curve using the program Helios to get the IC50 values of the test compound.

Sequence of wild type PRC2 (wtPRC2) complex (O75530 whole entry): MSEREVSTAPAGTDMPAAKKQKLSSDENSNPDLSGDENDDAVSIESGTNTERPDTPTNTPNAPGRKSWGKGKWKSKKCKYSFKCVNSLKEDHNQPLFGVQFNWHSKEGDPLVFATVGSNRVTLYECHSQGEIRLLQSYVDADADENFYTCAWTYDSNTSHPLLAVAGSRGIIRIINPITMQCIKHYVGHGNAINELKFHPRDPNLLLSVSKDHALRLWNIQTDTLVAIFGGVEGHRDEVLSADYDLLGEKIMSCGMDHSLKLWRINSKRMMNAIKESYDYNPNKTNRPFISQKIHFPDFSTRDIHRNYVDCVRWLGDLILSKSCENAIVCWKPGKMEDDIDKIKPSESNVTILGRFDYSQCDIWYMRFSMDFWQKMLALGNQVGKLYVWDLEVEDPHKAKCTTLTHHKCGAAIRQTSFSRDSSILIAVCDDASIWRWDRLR
Sequence of wild type PRC2 (wtPRC2) complex (Q15910 whole entry partner): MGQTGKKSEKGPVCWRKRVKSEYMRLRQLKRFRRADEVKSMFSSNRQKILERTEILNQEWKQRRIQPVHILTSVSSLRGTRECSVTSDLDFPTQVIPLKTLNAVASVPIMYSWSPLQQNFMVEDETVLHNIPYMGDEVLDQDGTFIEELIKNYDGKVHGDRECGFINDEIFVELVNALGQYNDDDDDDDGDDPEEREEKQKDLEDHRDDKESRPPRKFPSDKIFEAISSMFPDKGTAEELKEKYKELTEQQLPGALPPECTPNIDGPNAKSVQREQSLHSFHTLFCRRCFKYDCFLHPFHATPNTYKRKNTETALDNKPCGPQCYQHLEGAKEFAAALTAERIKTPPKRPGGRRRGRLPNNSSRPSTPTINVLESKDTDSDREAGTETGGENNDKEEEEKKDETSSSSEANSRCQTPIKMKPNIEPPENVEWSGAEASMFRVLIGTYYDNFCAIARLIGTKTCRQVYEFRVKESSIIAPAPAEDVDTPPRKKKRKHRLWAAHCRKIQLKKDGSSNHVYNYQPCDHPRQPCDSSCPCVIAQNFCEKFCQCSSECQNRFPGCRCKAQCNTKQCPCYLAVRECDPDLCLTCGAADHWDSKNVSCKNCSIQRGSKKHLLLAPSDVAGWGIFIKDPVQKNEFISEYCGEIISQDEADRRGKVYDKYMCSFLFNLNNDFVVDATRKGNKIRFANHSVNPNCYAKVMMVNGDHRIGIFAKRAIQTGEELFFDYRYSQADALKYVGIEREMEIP
Sequence of wild type PRC2 (wtPRC2) complex (Q15022 whole entry partner): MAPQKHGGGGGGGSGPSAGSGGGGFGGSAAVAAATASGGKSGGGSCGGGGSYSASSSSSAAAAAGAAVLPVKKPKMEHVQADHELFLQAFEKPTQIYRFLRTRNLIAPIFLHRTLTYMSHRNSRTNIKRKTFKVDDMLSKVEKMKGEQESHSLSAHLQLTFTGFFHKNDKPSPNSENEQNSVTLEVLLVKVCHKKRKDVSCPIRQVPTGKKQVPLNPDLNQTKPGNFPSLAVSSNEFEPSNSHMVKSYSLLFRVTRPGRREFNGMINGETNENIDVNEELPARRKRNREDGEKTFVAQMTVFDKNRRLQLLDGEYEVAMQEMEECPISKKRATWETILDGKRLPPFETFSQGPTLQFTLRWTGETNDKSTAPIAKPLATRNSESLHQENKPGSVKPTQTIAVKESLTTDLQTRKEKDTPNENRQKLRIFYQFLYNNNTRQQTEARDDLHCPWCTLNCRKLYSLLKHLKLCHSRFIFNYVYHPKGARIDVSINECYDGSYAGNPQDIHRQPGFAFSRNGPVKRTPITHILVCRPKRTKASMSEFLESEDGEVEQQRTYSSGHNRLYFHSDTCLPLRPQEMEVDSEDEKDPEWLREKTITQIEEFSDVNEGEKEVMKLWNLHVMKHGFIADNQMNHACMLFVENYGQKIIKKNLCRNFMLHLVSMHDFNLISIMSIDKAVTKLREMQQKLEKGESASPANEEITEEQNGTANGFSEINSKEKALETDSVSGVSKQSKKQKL
Sequence of EED (1-441)-His protein (O75530 whole entry): as the sequence (O75530 whole entry) above

| IC50 [1] | IC50 [2] | IC50 [3] | Structure (SMILES) |
| --- | --- | --- | --- |
| 3 nM | 10.5 nM | 2.1 nM | CCS(=O)(=O)c1ncn2c(NCc3c(F)ccc4c3CCO4)ncc(-c3cnc(C)nc3C)c12 [Example 104, 8-(2,4-dimethylpyrimidin-5-yl)-1-(ethylsulfonyl)-N-((5-fluoro-2,3-dihydrobenzofuran-4-yl)methyl)imidazo[1,5-c]pyrimidin-5-amine] |
| 12.6 nM | 25.7 nM | 32.1 nM | CN(C)Cc1ccc(-c2cnc(NCc3c(F)ccc4c3CCO4)n3cncc23)cc1 [Example 17, 8-(4-((dimethylamino)methyl)phenyl)-N-((5-fluoro-2,3-dihydrobenzofuran-4-yl)methyl)imidazo[1,5-c]pyrimidin-5-amine] |
| 12.2 nM | 15 nM | 99.4 nM | CS(=O)(=O)c1ccc(-c2cnc(NCc3c(F)ccc4c3CCO4)n3cnc(Cl)c23)cc1 [Example 109, 1-chloro-N-((5-fluoro-2,3-dihydrobenzofuran-4-yl)methyl)-8-(4-(methylsulfonyl)phenyl)imidazo[1,5-c]pyrimidin-5-amine] |
| 4.3 nM | 5.7 nM | 3.6 nM | CCOC(=O)c1ncn2c(NCc3c(F)ccc4c3CCO4)ncc(-c3cnc(C)nc3C)c12 [Example 94, ethyl 8-(2,4-dimethylpyrimidin-5-yl)-5-(((5-fluoro-2,3-dihydrobenzofuran-4-yl)methyl)amino)imidazo[1,5-c]pyrimidine-1-carboxylate] |
| 57.6 nM | 70.3 nM | 350 nM | CN(C)Cc1ccc(-c2cnc(NCc3c(F)ccc4occc34)n3cncc23)cc1 [Example 67, 8-(4-((dimethylamino)methyl)phenyl)-N-((5-fluorobenzofuran-4-yl)methyl)imidazo[1,5-c]pyrimidin-5-amine] |
| 10.4 nM | 23.4 nM | 4.9 nM | Cc1ncc(-c2cnc(NCc3c(F)ccc4c3CCO4)n3cnc([S+]([O-])c4ccccc4)c23)c(C)n1 (stereo not shown) [Example 14, 8-(2,4-Dimethylpyrimidin-5-yl)-N-((5-fluoro-2,3-dihydrobenzofuran-4-yl)methyl)-1-(phenylsulfinyl)imidazo[1,5-c]pyrimidin-5-amine] |
| 9.9 nM | 23.1 nM | 94.8 nM | Cc1nn(C(C)C)cc1-c1cnc(NCc2c(F)ccc3c2CCO3)n2cncc12 [Example 53, N-((5-fluoro-2,3-dihydrobenzofuran-4-yl)methyl)-8-(1-isopropyl-3-methyl-1H-pyrazol-4-yl)imidazo[1,5-c]pyrimidin-5-amine] |
| 8.5 nM | 8 nM | 32 nM | CCOC(=O)c1ncn2c(NCc3c(F)ccc4c3CCO4)ncc(Br)c12 [Example 91, ethyl 8-bromo-5-(((5-fluoro-2,3-dihydrobenzofuran-4-yl)methyl)amino)imidazo[1,5-c]pyrimidine-1-carboxylate] |
| 19.6 nM | 16.7 nM | 200 nM | CCOC(=O)c1ncn2c(NCc3cc(OC)c(F)cc3F)ncc(-c3ccc(S(=O)(=O)N(C)C)cc3)c12 [Example 97, ethyl 5-((2,4-difluoro-5-methoxybenzyl)amino)-8-(4-(N,N-dimethylsulfamoyl)phenyl)imidazo[1,5-c]pyrimidine-1-carboxylate] |
| 7.6 nM | 17.9 nM | 51.3 nM | Cc1cnccc1-c1cnc(NCc2c(F)ccc3c2CCO3)n2cncc12 [Example 36, N-((5-fluoro-2,3-dihydrobenzofuran-4-yl)methyl)-8-(3-methylpyridin-4-yl)imidazo[1,5-c]pyrimidin-5-amine] |
| 20.9 nM | 26.5 nM | 52.1 nM | Cc1cc(-c2cnc(NCc3c(F)ccc4c3CCO4)n3cncc23)ccn1 [Example 24, N-((5-fluoro-2,3-dihydrobenzofuran-4-yl)methyl)-8-(2-methylpyridin-4-yl)imidazo[1,5-c]pyrimidin-5-amine] |
| 7.7 nM | 11.1 nM | 19.5 nM | CC(C)S(=O)(=O)c1ccc(-c2cnc(NCc3c(F)ccc4c3CCO4)n3cncc23)cc1 [Example 30, N-((5-fluoro-2,3-dihydrobenzofuran-4-yl)methyl)-8-(4-(isopropylsulfonyl)phenyl)imidazo[1,5-c]pyrimidin-5-amine] |
| 21.2 nM | 44.1 nM | 81.1 nM | Fc1ccc2c(c1CNc1ncc(-c3ccncc3)c3cncn13)CCO2 [Example 20, N-((5-fluoro-2,3-dihydrobenzofuran-4-yl)methyl)-8-(pyridin-4-yl)imidazo[1,5-c]pyrimidin-5-amine] |
| 2.4 nM | 11 nM | 11.7 nM | Cc1nc(N2CCOCC2)ncc1-c1cnc(NCc2c(F)ccc3c2CCO3)n2cnc(C#N)c12 [Example 84, 5-(((5-fluoro-2,3-dihydrobenzofuran-4-yl)methyl)amino)-8-(4-methyl-2-morpholinopyrimidin-5-yl)imidazo[1,5-c]pyrimidine-1-carbonitrile] |
| 5.1 nM | 8.4 nM | 17.9 nM | Cc1cc(-c2cnc(NCc3c(F)ccc4c3CCO4)n3cncc23)n(C)n1 [Example 45, 8-(1,3-dimethyl-1H-pyrazol-5-yl)-N-((5-fluoro-2,3-dihydrobenzofuran-4-yl)methyl)imidazo[1,5-c]pyrimidin-5-amine] |
| 15.2 nM | 29.8 nM | 7.8 nM | Cc1ncc(-c2cnc(NCc3c(F)ccc4c3CCO4)n3cnc(S(=O)(=O)c4ccccc4)c23)c(C)n1 [Example 15, 8-(2,4-dimethylpyrimidin-5-yl)-N-((5-fluoro-2,3-dihydrobenzofuran-4-yl)methyl)-1-(phenylsulfonyl)imidazo[1,5-c]pyrimidin-5-amine] |
| 55.4 nM | 54.7 nM | 403 nM | CN(C)Cc1ccc(-c2cnc(NCc3cccc4occc34)n3cncc23)cc1 [Example 64, N-(benzofuran-4-ylmethyl)-8-(4-((dimethylamino)methyl)phenyl)imidazo[1,5-c]pyrimidin-5-amine] |
| 5 nM | 10 nM | 36.1 nM | CS(=O)(=O)c1ncn2c(NCc3c(F)ccc4c3CCO4)ncc(Br)c12 [Example 103, 8-bromo-N-((5-fluoro-2,3-dihydrobenzofuran-4-yl)methyl)-1-(methylsulfonyl)imidazo[1,5-c]pyrimidin-5-amine] |
| 8.3 nM | 18.1 nM | 6.8 nM | N#Cc1ncn2c(NCc3c(F)ccc4c3CCO4)ncc(-c3ccc(N4CCOCC4)nc3)c12 [Example 82, 5-(((5-fluoro-2,3-dihydrobenzofuran-4-yl)methyl)amino)-8-(6-morpholinopyridin-3-yl)imidazo[1,5-c]pyrimidine-1-carbonitrile] |
| 5.5 nM |  | 2 nM | CCOC(=O)c1ncn2c(NCc3c(F)ccc4c3CCO4)ncc(-c3cccnc3C)c12 [Example 95, ethyl 5-(((5-fluoro-2,3-dihydrobenzofuran-4-yl)methyl)amino)-8-(2-methylpyridin-3-yl)imidazo[1,5-c]pyrimidine-1-carboxylate] |
|  | 9.4 nM | 72.2 nM | CS(=O)(=O)c1ccc(-c2cnc(NCc3c(F)ccc4c3CCO4)n3cnc(-c4ccccc4)c23)cc1 [Example 110, N-((5-fluoro-2,3-dihydrobenzofuran-4-yl)methyl)-8-(4-(methylsulfonyl)phenyl)-1-phenylimidazo[1,5-c]pyrimidin-5-amine] |
|  | 16.5 nM | 10.9 nM | Cc1ncccc1-c1cnc(NCc2c(F)ccc3c2CCO3)n2cnc(C(=O)NC3COC3)c12 [Example 106, 5-(((5-fluoro-2,3-dihydrobenzofuran-4-yl)methyl)amino)-8-(2-methylpyridin-3-yl)-N-(oxetan-3-yl)imidazo[1,5-c]pyrimidine-1-carboxamide] |
|  | 35.1 nM | 14.8 nM | CCN1CCN(c2ccc(-c3cnc(NCc4c(F)ccc5c4CCO5)n4cnc(C#N)c34)cn2)CC1 [Example 81, 8-(6-(4-ethylpiperazin-1-yl)pyridin-3-yl)-5-(((5-fluoro-2,3-dihydrobenzofuran-4-yl)methyl)amino)imidazo[1,5-c]pyrimidine-1-carbonitrile] |
| 201 nM | 246 nM |  | COc1cccc(F)c1CNc1ncc(-c2ccc(CN(C)C)cc2)c2cncn12 [Example 68, 8-(4-((dimethylamino)methyl)phenyl)-N-(2-fluoro-6-methoxybenzyl)imidazo[1,5-c]pyrimidin-5-amine] |

From patent US10676479B2, “Imidazolepyridine compounds and uses thereof” (Novartis AG, priority 2016, dated 2020)
